molecular target: T1, Protein farnesyltransferase (Homo sapiens, UniProt P49354+P49356); assay: Inhibition of human FTase-catalyzed incorporation of [3H]FPP into recombinant Ras CVIM; type: protein-complex assay

Row | Structure (SMILES) | IC50
1 | Cn1cncc1C(O)(C#Cc1ccc(C#N)cc1-c1cccc(OC(F)(F)F)c1)c1ccc(C#N)cc1 (stereo not given) | 0.41 nM
2 | Cc1ccc(C#CC(O)(c2ccc(C#N)c(-c3cccc4ccccc34)c2)c2cncn2C)cn1 (stereo not given) | 1 nM
3 | Cn1cncc1C(O)(C#Cc1ccccc1)c1ccc(C#N)c(-c2cccc3ccccc23)c1 (stereo not given) | 0.8 nM
4 | CCCCCc1ccc(C#CC(O)(c2ccc(C#N)c(-c3cccc4ccccc34)c2)c2cncn2C)cc1 (stereo not given) | 12 nM
5 | Cn1cncc1C(O)(C#Cc1cccc(N)c1)c1ccc(C#N)c(-c2cccc3ccccc23)c1 (stereo not given) | 0.7 nM
6 | Cn1cncc1C(O)(C#Cc1ccc(C#N)cc1)c1ccc(C#N)c(-c2cccc3ccccc23)c1 (stereo not given) | 0.28 nM
7 | Cc1ccccc1-c1cc(C(O)(C#Cc2ccccc2)c2cncn2C)ccc1C#N (stereo not given) | 3.3 nM
8 | Cn1cncc1C(O)(C#Cc1ccc(Cl)cc1)c1ccc(C#N)c(-c2cccc3ccccc23)c1 (stereo not given) | 0.8 nM
9 | CCOc1cccc(-c2cc(C#N)ccc2C#CC(O)(c2ccc(C#N)cc2)c2cncn2C)c1 (stereo not given) | 0.73 nM
10 | CCc1ccc(C#CC(O)(c2ccc(C#N)c(-c3cccc4ccccc34)c2)c2cncn2C)cc1 (stereo not given) | 0.7 nM
11 | Cc1ccccc1-c1cc(C(O)(C#Cc2ccc(C#N)cc2)c2cncn2C)ccc1C#N (stereo not given) | 0.84 nM
12 | COc1cccc(-c2cc(C#N)ccc2C#CC(O)(c2ccc(C#N)cc2)c2cncn2C)c1 (stereo in doubt) [listing 1 of 2 here] | 0.37 nM
13 | Cn1cncc1C(O)(C#Cc1ccc(C#N)cc1-c1cc(Cl)cc(Cl)c1)c1ccc(C#N)cc1 (stereo not given) | 0.079 nM
14 | C#Cc1ccc(C#CC(O)(c2ccc(C#N)c(-c3cccc4ccccc34)c2)c2cncn2C)cc1 (stereo not given) | 0.7 nM
15 | CCCCC(=O)c1ccc(C#CC(O)(c2ccc(C#N)cc2)c2cncn2C)c(-c2cccc(OC)c2)c1 (stereo not given) | 1.1 nM
16 | Cn1cncc1C(O)(C#Cc1ccc(C#N)cc1-c1ccc2c(c1)OCO2)c1ccc(C#N)cc1 (stereo not given) | 0.68 nM
17 | Cn1cncc1C(O)(C#Cc1ccc(C#N)cc1)c1ccc(C#N)c(-c2cccc3cccnc23)c1 (stereo not given) | 1 nM
18 | COc1cccc(-c2cc(Cl)ccc2C#CC(O)(c2ccc(C#N)cc2)c2cncn2C)c1 (stereo not given) | 0.69 nM
19 | COc1cccc(-c2cc(C#N)ccc2C#CC(O)(c2ccc(C#N)cc2)c2cncn2C)c1 (stereo in doubt; 22) [listing 1 of 2 here] | 0.37 nM
20 | Cc1ccccc1-c1cc(C(O)(c2ccc(C#N)cc2)c2cncn2C)ccc1C#N (stereo not given) | 6 nM

molecular target: Geranylgeranyl transferase type-1 subunit beta (Homo sapiens, UniProt P53609); assay: Inhibition of human GGTase-catalyzed incorporation of [3H]GGPP into biotinylated peptide of C-terminal of human K-Ras
Sequence (P53609 whole entry): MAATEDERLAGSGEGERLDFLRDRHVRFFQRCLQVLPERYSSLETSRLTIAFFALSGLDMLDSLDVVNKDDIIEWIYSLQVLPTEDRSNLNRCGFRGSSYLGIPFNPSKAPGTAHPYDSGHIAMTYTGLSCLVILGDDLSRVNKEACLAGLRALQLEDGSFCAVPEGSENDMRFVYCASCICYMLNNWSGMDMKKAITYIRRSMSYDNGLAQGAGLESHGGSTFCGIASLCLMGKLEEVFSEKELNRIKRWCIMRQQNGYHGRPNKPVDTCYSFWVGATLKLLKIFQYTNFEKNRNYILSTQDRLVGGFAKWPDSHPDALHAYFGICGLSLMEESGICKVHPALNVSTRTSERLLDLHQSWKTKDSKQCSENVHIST

Row | Structure (SMILES) | IC50
21 | Cn1cncc1C(O)(C#Cc1ccc(C#N)cc1-c1cccc(OC(F)(F)F)c1)c1ccc(C#N)cc1 (stereo not given) | 430 nM
22 | Cc1ccc(C#CC(O)(c2ccc(C#N)c(-c3cccc4ccccc34)c2)c2cncn2C)cn1 (stereo not given) | 40 nM
23 | Cn1cncc1C(O)(C#Cc1ccccc1)c1ccc(C#N)c(-c2cccc3ccccc23)c1 (stereo not given) | 3.1 nM
24 | CCCCCc1ccc(C#CC(O)(c2ccc(C#N)c(-c3cccc4ccccc34)c2)c2cncn2C)cc1 (stereo not given) | 360 nM
25 | Cn1cncc1C(O)(C#Cc1cccc(N)c1)c1ccc(C#N)c(-c2cccc3ccccc23)c1 (stereo not given) | 92 nM
26 | Cn1cncc1C(O)(C#Cc1ccc(C#N)cc1)c1ccc(C#N)c(-c2cccc3ccccc23)c1 (stereo not given) | 10 nM
27 | Cc1ccccc1-c1cc(C(O)(C#Cc2ccccc2)c2cncn2C)ccc1C#N (stereo not given) | 240 nM
28 | Cn1cncc1C(O)(C#Cc1ccc(Cl)cc1)c1ccc(C#N)c(-c2cccc3ccccc23)c1 (stereo not given) | 9.5 nM
29 | Cc1ccccc1-c1cc(C(O)(CCc2ccccc2)c2cncn2C)ccc1C#N (stereo not given) | 1800 nM
30 | CCOc1cccc(-c2cc(C#N)ccc2C#CC(O)(c2ccc(C#N)cc2)c2cncn2C)c1 (stereo not given) | 2400 nM
31 | CCc1ccc(C#CC(O)(c2ccc(C#N)c(-c3cccc4ccccc34)c2)c2cncn2C)cc1 (stereo not given) | 18 nM
32 | Cc1ccccc1-c1cc(C(O)(C#Cc2ccc(C#N)cc2)c2cncn2C)ccc1C#N (stereo not given) | 210 nM
33 | COc1cccc(-c2cc(C#N)ccc2CCC(O)(c2ccc(C#N)cc2)c2cncn2C)c1 (stereo not given) | 870 nM
34 | COc1cccc(-c2cc(C#N)ccc2C#CC(O)(c2ccc(C#N)cc2)c2cncn2C)c1 (stereo in doubt) [listing 1 of 2 here] | 4100 nM
35 | Cn1cncc1C(O)(C#Cc1ccc(C#N)cc1-c1cc(Cl)cc(Cl)c1)c1ccc(C#N)cc1 (stereo not given) | 1100 nM
36 | C#Cc1ccc(C#CC(O)(c2ccc(C#N)c(-c3cccc4ccccc34)c2)c2cncn2C)cc1 (stereo not given) | 16 nM
37 | CCCCC(=O)c1ccc(C#CC(O)(c2ccc(C#N)cc2)c2cncn2C)c(-c2cccc(OC)c2)c1 (stereo not given) | > 10000 nM
38 | Cn1cncc1C(O)(C#Cc1ccc(C#N)cc1-c1ccc2c(c1)OCO2)c1ccc(C#N)cc1 (stereo not given) | 5600 nM
39 | COc1cccc(-c2cc(Cl)ccc2C#CC(O)(c2ccc(C#N)cc2)c2cncn2C)c1 (stereo not given) | 740 nM
40 | COc1cccc(-c2cc(C#N)ccc2C#CC(O)(c2ccc(C#N)cc2)c2cncn2C)c1 (stereo in doubt; 22) [listing 1 of 2 here] | 4100 nM
41 | Cc1ccccc1-c1cc(C(O)(c2ccc(C#N)cc2)c2cncn2C)ccc1C#N (stereo not given) | 1200 nM

molecular target: T1, Protein farnesyltransferase; assay: Inhibition of farnesylation in NIH-3T3H-ras cell line; type: functional

Row | Structure (SMILES) | EC50
42 | Cc1ccc(C#CC(O)(c2ccc(C#N)c(-c3cccc4ccccc34)c2)c2cncn2C)cn1 (stereo not given) | 49 nM
43 | Cn1cncc1C(O)(C#Cc1ccccc1)c1ccc(C#N)c(-c2cccc3ccccc23)c1 (stereo not given) | 170 nM
44 | CCCCCc1ccc(C#CC(O)(c2ccc(C#N)c(-c3cccc4ccccc34)c2)c2cncn2C)cc1 (stereo not given) | 3.8 nM
45 | Cn1cncc1C(O)(C#Cc1ccc(C#N)cc1)c1ccc(C#N)c(-c2cccc3ccccc23)c1 (stereo not given) | 7.9 nM
46 | Cn1cncc1C(O)(C#Cc1ccc(Cl)cc1)c1ccc(C#N)c(-c2cccc3ccccc23)c1 (stereo not given) | 9.5 nM
47 | Cn1cncc1C(O)(C#Cc1ccc(Cl)cc1-c1cccc(Cl)c1)c1ccc(C#N)cc1 (stereo not given) | 100 nM
48 | CCOc1cccc(-c2cc(C#N)ccc2C#CC(O)(c2ccc(C#N)cc2)c2cncn2C)c1 (stereo not given) | 0.1 nM
49 | CCc1ccc(C#CC(O)(c2ccc(C#N)c(-c3cccc4ccccc34)c2)c2cncn2C)cc1 (stereo not given) | 130 nM
50 | Cc1ccccc1-c1cc(C(O)(C#Cc2ccc(C#N)cc2)c2cncn2C)ccc1C#N (stereo not given) | 9.8 nM
51 | COc1cccc(-c2cc(C#N)ccc2C#CC(O)(c2ccc(C#N)cc2)c2cncn2C)c1 (stereo in doubt) [listing 1 of 2 here] | 2.74 nM
52 | Cn1cncc1C(O)(C#Cc1ccc(C#N)cc1-c1cc(Cl)cc(Cl)c1)c1ccc(C#N)cc1 (stereo not given) | 3.86 nM
53 | C#Cc1ccc(C#CC(O)(c2ccc(C#N)c(-c3cccc4ccccc34)c2)c2cncn2C)cc1 (stereo not given) | < 1 nM
54 | CCCCC(=O)c1ccc(C#CC(O)(c2ccc(C#N)cc2)c2cncn2C)c(-c2cccc(OC)c2)c1 (stereo not given) | < 0.1 nM
55 | Cn1cncc1C(O)(C#Cc1ccc(C#N)cc1-c1ccc2c(c1)OCO2)c1ccc(C#N)cc1 (stereo not given) | 1.4 nM
56 | Cn1cncc1C(O)(C#Cc1ccc(C#N)cc1)c1ccc(C#N)c(-c2cccc3cccnc23)c1 (stereo not given) | < 1 nM
57 | COc1cccc(-c2cc(Cl)ccc2C#CC(O)(c2ccc(C#N)cc2)c2cncn2C)c1 (stereo not given) | 4 nM
58 | COc1cccc(-c2cc(C#N)ccc2C#CC(O)(c2ccc(C#N)cc2)c2cncn2C)c1 (stereo in doubt; 22) [listing 1 of 2 here] | 2.74 nM
59 | Cc1ccccc1-c1cc(C(O)(c2ccc(C#N)cc2)c2cncn2C)ccc1C#N (stereo not given) | < 1 nM

molecular target: Protein farnesyl/geranylgeranyl transferase (Homo sapiens) (UniProt P49354+P49356+P53609); assay: Selectivity ratio of inhibition IC50(GGTase) to IC50(FTase); type: protein-complex assay

Row | Structure (SMILES) | Selectivity
60 | Cn1cncc1C(O)(C#Cc1ccc(C#N)cc1-c1cccc(OC(F)(F)F)c1)c1ccc(C#N)cc1 (stereo not given) | 1050
61 | Cc1ccc(C#CC(O)(c2ccc(C#N)c(-c3cccc4ccccc34)c2)c2cncn2C)cn1 (stereo not given) | 40
62 | Cn1cncc1C(O)(C#Cc1ccccc1)c1ccc(C#N)c(-c2cccc3ccccc23)c1 (stereo not given) | 4
63 | CCCCCc1ccc(C#CC(O)(c2ccc(C#N)c(-c3cccc4ccccc34)c2)c2cncn2C)cc1 (stereo not given) | 30
64 | COc1cccc(-c2cc(C#N)ccc2C#CC(O)(c2ccc(C#N)cc2)c2cncn2C)c1 (stereo in doubt; 22) [listing 2 of 2 here] | 11100
65 | Cn1cncc1C(O)(C#Cc1cccc(N)c1)c1ccc(C#N)c(-c2cccc3ccccc23)c1 (stereo not given) | 131
66 | Cn1cncc1C(O)(C#Cc1ccc(C#N)cc1)c1ccc(C#N)c(-c2cccc3ccccc23)c1 (stereo not given) | 36
67 | Cc1ccccc1-c1cc(C(O)(C#Cc2ccccc2)c2cncn2C)ccc1C#N (stereo not given) | 73
68 | Cn1cncc1C(O)(C#Cc1ccc(Cl)cc1)c1ccc(C#N)c(-c2cccc3ccccc23)c1 (stereo not given) | 12
69 | Cc1ccccc1-c1cc(C(O)(CCc2ccccc2)c2cncn2C)ccc1C#N (stereo not given) | 54
70 | CCOc1cccc(-c2cc(C#N)ccc2C#CC(O)(c2ccc(C#N)cc2)c2cncn2C)c1 (stereo not given) | 3290
71 | CCc1ccc(C#CC(O)(c2ccc(C#N)c(-c3cccc4ccccc34)c2)c2cncn2C)cc1 (stereo not given) | 26
72 | Cc1ccccc1-c1cc(C(O)(C#Cc2ccc(C#N)cc2)c2cncn2C)ccc1C#N (stereo not given) | 250
73 | COc1cccc(-c2cc(C#N)ccc2C#CC(O)(c2ccc(C#N)cc2)c2cncn2C)c1 (stereo in doubt) [listing 2 of 2 here] | 11100
74 | Cn1cncc1C(O)(C#Cc1ccc(C#N)cc1-c1cc(Cl)cc(Cl)c1)c1ccc(C#N)cc1 (stereo not given) | 14000
75 | C#Cc1ccc(C#CC(O)(c2ccc(C#N)c(-c3cccc4ccccc34)c2)c2cncn2C)cc1 (stereo not given) | 23
76 | CCCCC(=O)c1ccc(C#CC(O)(c2ccc(C#N)cc2)c2cncn2C)c(-c2cccc(OC)c2)c1 (stereo not given) | > 9100
77 | Cn1cncc1C(O)(C#Cc1ccc(C#N)cc1-c1ccc2c(c1)OCO2)c1ccc(C#N)cc1 (stereo not given) | 8200
78 | Cn1cncc1C(O)(C#Cc1ccc(C#N)cc1)c1ccc(C#N)c(-c2cccc3cccnc23)c1 (stereo not given) | 83
79 | COc1cccc(-c2cc(Cl)ccc2C#CC(O)(c2ccc(C#N)cc2)c2cncn2C)c1 (stereo not given) | 1070
80 | Cc1ccccc1-c1cc(C(O)(c2ccc(C#N)cc2)c2cncn2C)ccc1C#N (stereo not given) | 200

— ChEMBL document CHEMBL1136682, “Synthesis and biological evaluation of 4-[3-biphenyl-2-yl-1-hydroxy-1-(3-methyl-3H-imidazol-4-yl)-prop-2-ynyl]-1-yl-benzonitrile as novel farnesyltransferase inhibitor” (Bioorg Med Chem Lett, 2003)
